Earlier results, collected in patent US20110075702A1, “THERMAL SENSING EQUIPMENT AND THERMAL SENSING PROCESS” (JOHNSON CONTROLS TECHNOLOGY COMPANY, priority 2007, published 2011).

How the values were obtained:
[1] = @ 20° C. (68° F.)

Solubility in Water [1]: 77 mg/mL
NFPA Fire (NFPA fire diamond Flammability Value): 2
NFPA Health (NFPA fire diamond Health Value): 1
NFPA Reactivity (NFPA fire diamond Reactivity Value): 0
Compound: CC(=O)OCC(C)OC(C)=O (stereo not shown) [THERMAL FLUID #2, propylene glycol diacetate]
